# Columns and labels:
# Assay type in all cases: cell-based
# astrocytes = experiment: Extracellular medium acidification (SNARF5) assay in astrocytes; settings: Mus musculus, Astrocyte, 1.5 h; astrocytes in vitro, 90 min stimulation, 10 nM to 30 μM
# Protocol: Secretion of lactate was measured indirectly through the acidification of extracellular medium using extracellular pH sensor SNARE-5F-(AND-6)-CAR (SNARF5) as described below.
# Secretion of lactate was measured indirectly through the acidification of extracellular medium using extracellular pH sensor […] (SNARF5). After washing cells twice with stimulation medium (DMEM (D5030, Sigma), 1 mM […], and 5 mM Glucose, pH 7.4) at 37° C., cells were stimulated with compounds at a final concentration ranging from 10 nM to 30 μM in 50 μl per well of stimulation medium supplemented with 10 μM of SNARF5 (Life Technologies Corporation). Each compound was tested in two different plates for duplicates. After 90 min stimulation, fluorescence was read at exc. (excitation) 480 nm/emm. (emission) 580 nm and at exc 480 nm/emm. 630 nm. The ratio of fluorescence between 630 nm and 580 emission values, which is proportional to extracellular pH, was calculated. In each plate, 8 wells were used for negative controls (DMSO 0.1%) and 8 wells were used for positive controls (CCCP 2 μM in DMSO).
# Table 3 below lists compounds that are active on the extracellular medium acidification (SNARF5) assay in astrocytes in vitro, which indicates their ability to produce lactate. ‘+’ indicates activity of compounds with EC50>5 μM; ‘++’ indicates activity of compounds with EC50<5 μM.
# (§1) Primary cultures of cerebrocortical astrocytes were obtained from 1 to 2-day-old OF1 mouse pups (Charles River). Briefly, cortices were isolated and minced in small pieces under a dissecting microscope. The cells were incubated for 30 min at 37° C. in a solution containing 20 U/ml papain, 1 mM L-cysteine and 10 kU/ml DNase I. After dissociation, papain activity was stopped by the addition of fetal calf serum (FCS). Single-cell suspension was then obtained by mechanical dissociation, which consisted in cells trituration in a DMEM D7777 medium supplemented with 44 mm NaHCO3, 10 ml/L antibiotic/antimycotic solution and 10% FCS. The cells were seeded at an average density of ˜10′000 cells/cm^2 on poly-D-lysine coated 96- or 12-well culture plates, depending on their use, and grown in DMEM D7777 medium supplemented with 44 mm NaHCO3, 10 ml/L antibiotic/antimycotic solution and 10% FCS at 37° C. in a humidified atmosphere containing 5% CO2/95% air. Culture medium was renewed twice a week. Cells were stimulated and harvested between DIV14 and DIV17, when confluence and cell growth were optimal.
# primary mouse astrocytes = experiment: Extracellular lactate quantification (lactate release from primary astrocytes); settings: Astrocyte, 1.5 h; for EC50: primary mouse astrocytes, 90 min stimulation, read-out: EC50 of astrocyte-mediated lactate secretion; for Emax: Mus musculus, positive control CCCP 2 μM, 90 min, read-out: Maximal effect on lactate secretion compared to the effect of the positive control (100%)
# Protocol: as §1
# Secretion of L-lactate was measured in the extracellular medium of 96-well plated astrocytes after 90 min stimulation (at 37° C., in 5% CO2/95% air conditions) with Vehicle (DMSO), the compounds of the invention (100 nM to 100 μM) or positive control. […] Stimulation medium was composed of D5030 medium complemented with 5 mM D-glucose and 44 mM sodium bicarbonate, pH 7.2. To quantify lactate concentrations in the extracellular medium, 200 μl of a 0.2M Glycine-semicarbazide buffer (pH 10) containing 3 mM NAD and 14 U/ml LDH was added to each well of a 96-well plate containing 30 μl aliquots of extracellular medium. Samples were incubated at 37° C. for 1 h. Fluorescence intensity (340 nm excitation/450 nm emission), which represents the amount of NADH produced, was measured, and lactate concentration values were determined relative to a standard curve of L-lactate concentrations.
# The release of lactate from primary mouse astrocytes treated with compound (1) at 10 μM was quantified by (FIG. 1). Accumulation of lactate in the extracellular medium was measured over a period of 1.5 h. […] Maximal effects of the compounds were 38.6% (1), 38% (2), 31% (4) and 76% (3) when compared to the effect of the positive control (100%) for compounds (1) to (4), respectively.
# primary astrocytes = experiment: MTT mitochondrial activity assay; settings: Mus musculus, Astrocyte, 24 h treatment
# Protocol: as §1
# To monitor mitochondrial activity in astrocytes, which is linked to the metabolic process of glycolysis and production of lactate, astrocytes in 96-well plates were stimulated for 24 h (37° C. 5% CO2/95% air) with the compounds of the invention ranging from 0.2 to 200 μM.
# After stimulation, 5 mg/ml thiazol blue tetrazolium bromide (MTT) in D5030 medium complemented with 5 mM D-glucose and 44 mM sodium bicarbonate (pH 7.2) was added to each well, and cells were incubated for 4 h at 37° C. (5% CO2). The medium was then removed and the amount of reduced MTT, i.e. formazan, solubilized in DMSO (50 μl/well) was determined using a spectrophotometer (absorbance of 570 nm).
# The mitochondrial activity in primary astrocytes treated with Compounds (1) to (4) at concentrations ranging from 1 nM to 200 μM. After 24 h, mitochondrial activity was monitored in MTT colorimetric assay as described above (FIG. 3).
SMILES,EC50 (astrocytes) [µM],further results
"COc1cc2ccnc(Nc3ccc(C(F)(F)F)cc3)c2cc1OC [Example 2, 6,7-dimethoxy-N-(4-(trifluoromethyl)phenyl)isoquinolin-1-amine]",> 5,EC50 (primary mouse astrocytes): 10.1 µM; Emax (primary mouse astrocytes): 38%; IC50 (primary astrocytes): 42.9 µM
"FC(F)(F)Oc1ccc(Nc2nccc3cc(Cl)ccc23)cc1 [Example 13, 6-chloro-N-(4-(trifluoromethoxy)phenyl)isoquinolin-1-amine]",> 5,
"COc1cc2ccnc(Nc3ccc(SC)cc3)c2cc1OC [Example 18, 6,7-dimethoxy-N-(4-(methylthio)phenyl)isoquinolin-1-amine]",> 5,
"COc1cc2ccnc(Nc3cccc(OC(F)F)c3)c2cc1OC [Example 16, N-(3-(difluoromethoxy)phenyl)-6,7-dimethoxyisoquinolin-1-amine]",< 5,
"COc1cc2ccnc(Nc3ccc(C#N)cc3C(F)(F)F)c2cc1OC [Example 17, 4-((6,7-dimethoxyisoquinolin-1-yl)amino)-3-(trifluoromethyl)benzo-nitrite]",> 5,
"COc1ccc2c(Nc3ccc(OC(F)(F)F)cc3)nccc2c1 [Example 12, 6-methoxy-N-(4-(trifluoromethoxy)phenyl)isoquinolin-1-amine]",> 5,
"COCc1ccc(Nc2nccc3cc(OC)c(OC)cc23)cc1 [Example 9, 6,7-dimethoxy-N-(4-(methoxymethyl)phenyl)isoquinolin-1-amine]",> 5,
"COc1cc2ccnc(Nc3ccc(OC(F)(F)F)c(Cl)c3)c2cc1OC [Example 19, N-(3-chloro-4-(trifluoromethoxy)phenyl)-6,7-dimethoxyisoquinolin-1-amine]",< 5,
"COc1cc2ccnc(Nc3ccc(OC(F)(F)F)cc3F)c2cc1OC [Example 10, N-(2-fluoro-4-(trifluoromethoxy)phenyl)-6,7-dimethoxyisoquinolin-1-amine]",> 5,
"COc1ccc2c(Nc3ccc(OC(F)(F)F)cc3)nccc2c1C [Example 21, 6-methoxy-5-methyl-N-(4-(trifluoromethoxy)phenyl)isoquinolin-1-amine]",< 5,
"COCCOc1ccc(Nc2nccc3cc(OC)c(OC)cc23)cc1 [Example 8, 6,7-dimethoxy-N-(4-(2-methoxyethoxy)phenyl)isoquinolin-1-amine]",> 5,
"CCc1ccc2c(Nc3ccc(OC(F)(F)F)cc3)nccc2c1 [Example 30, 6-ethyl-N-(4-(trifluoromethoxy)phenyl)isoquinolin-1-amine]",< 5,
"CN(C)c1ccc2c(Nc3ccc(OC(F)(F)F)cc3)nccc2c1 [Example 27, N^6,N^6-dimethyl-N^1-(4-(trifluoromethoxy)phenyl)isoquinoline-1,6-diamine]",< 5,
"COc1cc2ccnc(Nc3ccc(C)cc3)c2cc1OC [Example 6, 6,7-dimethoxy-N-(p-tolyl)isoquinolin-1-amine]",> 5,
"FC(F)(F)Oc1ccc(Nc2nccc3ccccc23)cc1 [Example 3, N-(4-(trifluoromethoxy)phenyl)isoquinolin-1-amine]",> 5,EC50 (primary mouse astrocytes): 10.9 µM; Emax (primary mouse astrocytes): 76%; IC50 (primary astrocytes): 26.6 µM

# The next lines start with results.
EC50 (astrocytes) [µM],SMILES,further results
> 5,"COc1cc2ccnc(Cc3ccc(OC(F)(F)F)cc3)c2cc1OC [Example 4, 6,7-dimethoxy-1-(4-(trifluoromethoxy)benzyl)isoquinoline]",EC50 (primary mouse astrocytes): 10.5 µM; Emax (primary mouse astrocytes): 31%; IC50 (primary astrocytes): 5.5 µM
< 5,"COCCc1ccc(Nc2nccc3cc(OC)c(OC)cc23)cc1 [Example 20, 6,7-dimethoxy-N-(4-(2-methoxyethyl)phenyl)isoquinolin-1-amine]",
< 5,"COC(=O)c1ccc2c(Nc3ccc(OC(F)(F)F)cc3)nccc2c1 [Example 29, methyl 1-((4-(trifluoromethoxy)phenyl)amino)isoquinoline-6-carboxylate]",
> 5,"COc1cc2ccnc(Nc3cccc(N(C)C)c3)c2cc1OC [Example 15, N^1-(6,7-dimethoxyisoquinolin-1-yl)-N^3,N^3-dimethylbenzene-1,3-diamine]",
> 5,"COc1cc2ccnc(Nc3ccc(OC(F)(F)F)c(F)c3)c2cc1OC [Example 14, N-(3-fluoro-4-(trifluoromethoxy)phenyl)-6,7-dimethoxyisoquinolin-1-amine]",
> 5,"COc1ccc2c(Nc3ccc(OC(F)(F)F)cc3)ncc(C)c2c1 [Example 24, 6-methoxy-4-methyl-N-(4-(trifluoromethoxy)phenyl)isoquinolin-1-amine]",
> 5,"COc1ccc(Nc2nccc3cc(OC)c(OC)cc23)cc1OC [Example 5, N-(3,4-dimethoxyphenyl)-6,7-dimethoxyisoquinolin-1-amine]",
> 5,"COc1ccc(Nc2nccc3cc(OC)c(OC)cc23)cc1 [Example 7, 6,7-dimethoxy-N-(4-methoxyphenyl)isoquinolin-1-amine]",
> 5,"COc1ccc2c(Nc3ccc(OC(F)(F)F)cc3)ncc(Br)c2c1 [Example 25, 4-bromo-6-methoxy-N-(4-(trifluoromethoxy)phenyl)isoquinolin-1-amine]",
< 5,"COc1cc2ccnc(Nc3cccc(OC(F)(F)F)c3)c2cc1OC [Example 11, 6,7-dimethoxy-N-(3-(trifluoromethoxy)phenyl)isoquinolin-1-amine]",

# Reference: US11925632B2, “Isoquinoline derivatives for use in treating GLUT1 deficiency syndrome” (GLIAPHARM SA, priority 2019, dated 2024)
